Biological target: hSTING(R232) (Homo sapiens, UniProt Q86WV6, H232R)
Test: Luciferase reporter assay in HEK293T-hSTING-Luciferase cells, R232 (wild type) human STING
Assay type: cell-based
Details: 20 hr stimulation, read-out: R232 human activity (EC50 range)
Outline: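 Clonal HEK293T cells stably expressing STING from a pUNO-1 plasmid plus an ISRE/ISG54-driven secreted luciferase reporter; 5×10^5 cells stimulated with compound for 20 hr. Supernatant luciferase read by luminescence, giving fold-induction over baseline and EC50.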

Chain of hSTING(R232) (Q86WV6 whole entry H232R): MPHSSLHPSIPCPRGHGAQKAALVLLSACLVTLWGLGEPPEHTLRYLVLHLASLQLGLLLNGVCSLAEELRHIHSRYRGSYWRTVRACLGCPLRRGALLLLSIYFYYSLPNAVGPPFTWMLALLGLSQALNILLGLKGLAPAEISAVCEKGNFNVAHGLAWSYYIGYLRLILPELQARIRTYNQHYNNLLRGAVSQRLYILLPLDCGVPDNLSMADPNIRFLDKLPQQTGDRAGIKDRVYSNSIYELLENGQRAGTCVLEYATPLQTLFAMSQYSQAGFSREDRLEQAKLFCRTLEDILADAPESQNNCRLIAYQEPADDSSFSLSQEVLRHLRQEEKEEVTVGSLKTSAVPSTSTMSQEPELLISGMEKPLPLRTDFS

`CC1c2ccc(C(=O)NCc3c(F)cc(F)cc3F)cc2N(Cc2cc(F)cc(F)c2)C(=O)N1C` (stereo not drawn) [Example 157, 1-(3,5-difluorobenzyl)-3,4-dimethyl-2-oxo-N-(2,4,6-trifluorobenzyl)-1,2,3,4-tetrahydroquinazoline-7-carboxamide] and `CC1c2ccc(C(=O)NCc3c(F)cc(F)cc3F)cc2N(Cc2c(F)cccc2F)C(=O)N1C` (stereo not drawn) [Example 195, 1-(2,6-difluorobenzyl)-3,4-dimethyl-2-oxo-N-(2,4,6-trifluorobenzyl)-1,2,3,4-tetrahydroquinazoline-7-carboxamide] cannot be ordered by EC50: under 1000 nM for the first, under 1000 nM for the second.

`CC1c2ccc(C(=O)NCc3c(F)cc(F)cc3F)cc2N(Cc2c(F)cccc2Br)C(=O)N1C` (stereo not drawn) [Example 158, 1-(2-bromo-6-fluorobenzyl)-3,4-dimethyl-2-oxo-N-(2,4,6-trifluorobenzyl)-1,2,3,4-tetrahydroquinazoline-7-carboxamide] and `CC1c2ccc(C(=O)NCc3c(F)cc(F)cc3F)cc2N(Cc2c(O)cccc2F)C(=O)N1C` (stereo not drawn) [Example 160, 1-(2-fluoro-6-hydroxybenzyl)-3,4-dimethyl-2-oxo-N-(2,4,6-trifluorobenzyl)-1,2,3,4-tetrahydroquinazoline-7-carboxamide] cannot be ordered by EC50: under 1000 nM for the first, under 1000 nM for the second.

First: CC1c2ccc(C(=O)NCc3c(F)cc(F)cc3F)cc2N(Cc2c(F)cccc2Br)C(=O)N1C (stereo not drawn) [Example 159, 1-(2-bromo-6-fluorobenzyl)-3,4-dimethyl-2-oxo-N-(2,4,6-trifluorobenzyl)-1,2,3,4-tetrahydroquinazoline-7-carboxamide]
Second: Cc1cccc(F)c1CN1C(=O)N(C)C(C)c2ccc(C(=O)NCc3c(F)cc(F)cc3F)cc21 (stereo not drawn) [Example 161, 1-(2-fluoro-6-methylbenzyl)-3,4-dimethyl-2-oxo-N-(2,4,6-trifluorobenzyl)-1,2,3,4-tetrahydroquinazoline-7-carboxamide]
The EC50 of the first is lower: under 1000 nM for the first, 1000 to 10000 nM for the second. The first is the more potent here.

`Cc1ccc(Cl)c(CN2C(=O)N(C)C(C)c3ccc(C(=O)NCc4c(F)cc(F)cc4F)cc32)c1F` (stereo not drawn) [Example 163, 1-(6-chloro-2-fluoro-3-methylbenzyl)-3,4-dimethyl-2-oxo-N-(2,4,6-trifluorobenzyl)-1,2,3,4-tetrahydroquinazoline-7-carboxamide] and `Cc1ccc(CN2C(=O)N(C)[C@@H](C)c3ccc(C(=O)NCc4c(F)cc(F)cc4F)cc32)c(F)c1` [Example 170, (S)-1-(2-fluoro-4-methylbenzyl)-3,4-dimethyl-2-oxo-N-(2,4,6-trifluorobenzyl)-1,2,3,4-tetrahydroquinazoline-7-carboxamide] cannot be ordered by EC50: under 1000 nM for the first, under 1000 nM for the second.

First: C[C@@H]1c2ccc(C(=O)NCc3c(F)cc(F)cc3F)cc2N(Cc2c(O)cccc2F)C(=O)N1C [Example 172, (R)-1-(2-fluoro-6-hydroxybenzyl)-3,4-dimethyl-2-oxo-N-(2,4,6-trifluorobenzyl)-1,2,3,4-tetrahydroquinazoline-7-carboxamide]
Second: CC1c2ccc(C(=O)NCc3c(F)cc(F)cc3F)cc2N(Cc2c(N)cccc2F)C(=O)N1C (stereo not drawn) [Example 173, 1-(2-amino-6-fluorobenzyl)-3,4-dimethyl-2-oxo-N-(2,4,6-trifluorobenzyl)-1,2,3,4-tetrahydroquinazoline-7-carboxamide]
The EC50 of the first is higher: 1000 to 10000 nM for the first, under 1000 nM for the second.

`CC1c2ccc(C(=O)NCc3c(F)cc(F)cc3F)cc2N(Cc2ccc(O)cc2F)C(=O)N1C` (stereo not drawn) [Example 181, 1-(2-fluoro-4-hydroxybenzyl)-3,4-dimethyl-2-oxo-N-(2,4,6-trifluorobenzyl)-1,2,3,4-tetrahydroquinazoline-7-carboxamide] and `CC1c2ccc(C(=O)NCc3c(F)cc(F)cc3F)cc2N(Cc2ccccc2F)C(=O)N1C` (stereo not drawn) [Example 194, 1-(2-fluorobenzyl)-3,4-dimethyl-2-oxo-N-(2,4,6-trifluorobenzyl)-1,2,3,4-tetrahydroquinazoline-7-carboxamide] cannot be ordered by EC50: under 1000 nM for the first, under 1000 nM for the second.

`C[C@H]1c2ccc(C(=O)NCc3c(F)cc(F)cc3F)cc2N(Cc2c(F)ccc(C(N)=O)c2Cl)C(=O)N1C` [Example 186, (S)-1-(3-carbamoyl-2-chloro-6-fluorobenzyl)-3,4-dimethyl-2-oxo-N-(2,4,6-trifluorobenzyl)-1,2,3,4-tetrahydroquinazoline-7-carboxamide] and `CC1c2ccc(C(=O)NCc3c(F)cc(F)cc3F)cc2N(Cc2c(F)cccc2F)C(=O)N1C` (stereo not drawn) [Example 205, 1-(2,6-difluorobenzyl)-3,4-dimethyl-2-oxo-N-(2,4,6-trifluorobenzyl)-1,2,3,4-tetrahydroquinazoline-7-carboxamide] cannot be ordered by EC50: under 1000 nM for the first, under 1000 nM for the second.

First: CC1NC(=O)N(Cc2c(F)cccc2Cl)c2cc(C(=O)NCc3c(F)cc(F)cc3F)ccc21 (stereo not drawn) [Example 189, 1-(2-chloro-6-fluorobenzyl)-4-methyl-2-oxo-N-(2,4,6-trifluorobenzyl)-1,2,3,4-tetrahydroquinazoline-7-carboxamide]
Second: CC1c2ccc(C(=O)NCc3c(F)cc(F)cc3F)cc2N(Cc2ccccc2F)C(=O)N1C (stereo not drawn) [Example 201, 1-(2-fluorobenzyl)-3,4-dimethyl-2-oxo-N-(2,4,6-trifluorobenzyl)-1,2,3,4-tetrahydroquinazoline-7-carboxamide]
The EC50 of the first is higher: 1000 to 10000 nM for the first, under 1000 nM for the second.

`CC1c2ccc(C(=O)NCc3c(F)cc(F)cc3F)cc2N(Cc2ccccc2)C(=O)N1C` (stereo not drawn) [Example 190, 1-benzyl-3,4-dimethyl-2-oxo-N-(2,4,6-trifluorobenzyl)-1,2,3,4-tetrahydroquinazoline-7-carboxamide] and `Cc1cc(CN2C(=O)N(C)C(C)c3ccc(C(=O)NCc4c(F)cc(F)cc4F)cc32)ccn1` (stereo not drawn) [Example 198, 3,4-dimethyl-1-((2-methylpyridin-4-yl)methyl)-2-oxo-N-(2,4,6-trifluorobenzyl)-1,2,3,4-tetrahydroquinazoline-7-carboxamide] cannot be ordered by EC50: under 1000 nM for the first, under 1000 nM for the second.

Compared with `CC1c2ccc(C(=O)NCc3c(F)cc(F)cc3F)cc2N(Cc2ccccc2)C(=O)N1C` (stereo not drawn) [Example 191, 1-benzyl-3,4-dimethyl-2-oxo-N-(2,4,6-trifluorobenzyl)-1,2,3,4-tetrahydroquinazoline-7-carboxamide], `Cc1cc(CN2C(=O)N(C)C(C)c3ccc(C(=O)NCc4c(F)cc(F)cc4F)cc32)ccn1` (stereo not drawn) [Example 207, 3,4-dimethyl-1-((2-methylpyridin-4-yl)methyl)-2-oxo-N-(2,4,6-trifluorobenzyl)-1,2,3,4-tetrahydroquinazoline-7-carboxamide] is higher in EC50: under 1000 nM for the first, 1000 to 10000 nM for the second. The first is the more potent here.

`CC1c2ccc(C(=O)NCc3c(F)cc(F)cc3F)cc2N(Cc2ccccc2)C(=O)N1C` (stereo not drawn) [Example 192, 1-benzyl-3,4-dimethyl-2-oxo-N-(2,4,6-trifluorobenzyl)-1,2,3,4-tetrahydroquinazoline-7-carboxamide] and `CC1c2ccc(C(=O)NCc3ccc(F)cc3F)cc2N(Cc2ccccc2F)C(=O)N1C` (stereo not drawn) [Example 197, N-(2,4-difluorobenzyl)-1-(2-fluorobenzyl)-3,4-dimethyl-2-oxo-1,2,3,4-tetrahydroquinazoline-7-carboxamide] cannot be ordered by EC50: under 1000 nM for the first, under 1000 nM for the second.

`Cc1cc(CN2C(=O)N(C)C(C)c3ccc(C(=O)NCc4c(F)cc(F)cc4F)cc32)on1` (stereo not drawn) [Example 199, 3,4-dimethyl-1-((3-methylisoxazol-5-yl)methyl)-2-oxo-N-(2,4,6-triflurobenzyl)-1,2,3,4-tetrahydroquinazoline-7-carboxamide] and `Cc1cc(CN2C(=O)N(C)C(C)c3ccc(C(=O)NCc4c(F)cc(F)cc4F)cc32)no1` (stereo not drawn) [Example 200, 3,4-dimethyl-1-((5-methylisoxazol-3-yl)methyl)-2-oxo-N-(2,4,6-trifluorobenzyl)-1,2,3,4-tetrahydroquinazoline-7-carboxamide] cannot be ordered by EC50: over 10000 nM for the first, over 10000 nM for the second.
